Values quoted from earlier work, collected in patent US9150582B2, “Composition and method for neuropeptide S receptor (NPSR) antagonists” (RESEARCH TRIANGLE INSTITUTE, priority 2011, dated 2015).
Entries after “also recorded” stand apart in the source; their conditions may differ.

Key:
[1] = i.c.v.
[2] = test system: basolateral amygdala (BLA); settings: 0.1 nM injected into BLA
[3] = test system: mice; settings: i.c.v.
[4] = test system: mice; settings: i.c.v., habituated and naive mice
[5] = test system: mice
[6] = test system: mice; settings: elevated plus maze, light dark box, marble burying
[7] = target: T1, NPSR-C0Alt (Homo sapiens, UniProt Q6W5P4); settings: functional assay
T1 sequence (Q6W5P4 1-377 isoform Q6W5P4-4): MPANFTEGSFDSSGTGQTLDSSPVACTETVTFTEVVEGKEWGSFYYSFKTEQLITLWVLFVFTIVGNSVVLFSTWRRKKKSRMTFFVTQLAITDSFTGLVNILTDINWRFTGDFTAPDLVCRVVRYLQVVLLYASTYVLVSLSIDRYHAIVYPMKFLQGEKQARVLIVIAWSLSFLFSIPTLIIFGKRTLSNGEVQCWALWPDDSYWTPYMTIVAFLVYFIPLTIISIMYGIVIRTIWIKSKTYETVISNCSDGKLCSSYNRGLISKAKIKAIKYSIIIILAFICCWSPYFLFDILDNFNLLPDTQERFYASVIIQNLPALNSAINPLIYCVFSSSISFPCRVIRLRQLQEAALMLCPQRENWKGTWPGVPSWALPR

[8] = target: T2, NPSR Ile^107 variant (Homo sapiens, UniProt Q6W5P4, N107I); settings: calcium flux
T2 sequence (Q6W5P4 1-371 N107I): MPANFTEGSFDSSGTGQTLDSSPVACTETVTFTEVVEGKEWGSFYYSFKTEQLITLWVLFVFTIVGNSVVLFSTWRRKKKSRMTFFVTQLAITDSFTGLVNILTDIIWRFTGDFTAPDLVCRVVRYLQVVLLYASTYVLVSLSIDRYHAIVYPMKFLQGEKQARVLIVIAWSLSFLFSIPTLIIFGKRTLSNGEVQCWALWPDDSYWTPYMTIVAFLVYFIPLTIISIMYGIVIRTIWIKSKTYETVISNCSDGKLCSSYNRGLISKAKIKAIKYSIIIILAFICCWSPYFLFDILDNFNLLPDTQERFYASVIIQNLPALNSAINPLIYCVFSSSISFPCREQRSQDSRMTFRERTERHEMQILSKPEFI

[9] = test system: mice; settings: 0.1 nMol NPS

NPS: Human Neuropeptide S, 20 residue peptide SFRNGVGTGMKKTSFQRAKS (SEQ ID NO: 1), agonist of NPSR (Human)
performance in novel recognition assays [1]: dose-dependently improves performance
anxiolytic activity at low dose [2]: No anxiolytic activity was observed
contextual fear memories [2]: significantly reduced contextual fear memories
formerly extinguished cocaine seeking behaviors [3]: dose-dependently increased
locomotor activity [4]: increased locomotor activity; also recorded: increase in locomotor activity
fear response (freezing behavior), administration pre-testing ([5]; NPS given pre-testing): decreased the fear response
fear response, administration pre-training ([5]; NPS given pre-training): no effect on fear response
anxiolytic-like behaviors [6]: anxiolytic-like behaviors
potency at NPSR-C0Alt, lower versus the 107I variant [7]: 30 fold
enhancement in functional sensitivity, Ile107 variant over Asn107 [8]: five to ten fold enhancement
amount of stage 1 and 2 slow wave sleep and REM sleep ([9]; compared to saline): significantly reduced
first hour of wakefulness ([9]; mice, saline 45%): 69%
